Data: patent US9221814B2, “Heterocyclic guanidine F1F0-atpase inhibitors and therapeutic uses thereof” (Lycera Corporation, priority 2012, dated 2015)
Where two headings read alike, the source gives them in different places.

Assays:
Ramos cells = assay: Cytotoxicity in Ramos cells; type: cell-based; conditions: detection limit EC50=16 μM, read-out: Ramos Cell EC50
Procedure: (§1) Exemplary compounds described in above Examples were tested for activity against F1F0-ATPase by measuring the ability of the compounds to inhibit ATP synthesis. In addition, the compounds were assessed for cytotoxicity in Ramos cells. Inhibition of F1F0-ATPase activity in synthesizing ATP and cytotoxicity in Ramos cells were measured according to the procedures described in K. M. Johnson et al. Chemistry & Biology 2005, 12, 485-496.

F1F0-ATPase = biological target: T1, F1F0-ATPase (Bos taurus, UniProt P13621); assay: Inhibition of F1F0-ATPase activity in synthesizing ATP (ATP synthesis inhibition); type: biochemical; conditions: detection limit IC50=16 μM, read-out: ATP Syn IC50
T1 construct: from tissue
Procedure: as §1

IC50 (F1F0-ATPase) | SMILES | EC50 (Ramos cells) | EC50 (Ramos cells; Homo sapiens)
5 to 16 µM | Cn1cc(C(=O)/N=C(/NCC(C)(C)C)Nc2n[nH]c3cncc(F)c23)c(C(F)(F)F)n1 [Compound A-144] | > 16 µM | 
< 5 µM | Cn1cc(C(=O)/N=C(/Nc2ccc(F)cc2)Nc2cc(-c3ccc(O)c(F)c3)n[nH]2)c(C(F)(F)F)n1 [Compound A-164] | < 5 µM | 
5 to 16 µM | COC[C@H](C)N/C(=N/C(=O)c1cn(C)nc1C(F)(F)F)Nc1cc(-c2ccc(OC)c(F)c2)n[nH]1 [Compound A-132] | 5 to 16 µM | 
< 5 µM | COc1ccc(-c2cc(NC(=NC(=O)c3cn(C)nc3C(F)(F)F)Nc3ccc(F)c(Cl)c3)[nH]n2)cc1F [Compound A-155] |  | > 16 µM
> 16 µM | COCC(C)NC(=NC(=O)c1cn(C)nc1C(F)(F)F)Nc1n[nH]c2cncc(F)c12 (stereo not drawn) [Compound A-142] |  | 5 to 16 µM
< 5 µM | Cc1oncc1C(=O)N=C(NCC(C)C)Nc1cc(-c2cc(F)cc(Cl)c2)n[nH]1 [Compound A-99] |  | 5 to 16 µM
< 5 µM | COc1ccc(-c2cc(N/C(=N\C(=O)c3cn(C)nc3C(F)(F)F)Nc3cccc(F)c3)[nH]n2)cc1F [Compound A-157] | 5 to 16 µM | 
< 5 µM | COc1ccc(-c2cc(N/C(=N\C(=O)c3cn(C)nc3C(F)(F)F)NCC(C)C)n[nH]2)cc1F [Compound A-133] | < 5 µM | 
< 5 µM | Cc1oncc1C(=O)/N=C(\Nc1cc(-c2ccc(F)cc2)n[nH]1)NC(C)(C)C [Compound A-188] | < 5 µM | 
< 5 µM | CCn1nc(C)cc1C(=O)/N=C(\Nc1cc(-c2ccc(F)cc2)n[nH]1)NC(C)C [Compound A-54] | < 5 µM | 
< 5 µM | CC(C)CN/C(=N/C(=O)c1cc(C(C)(C)C)nn1C)Nc1cc(-c2ccc(Cl)cc2)n[nH]1 [Compound A-73] | < 5 µM | 
< 5 µM | CCOCCCN/C(=N/C(=O)c1cc(C)oc1C(F)(F)F)Nc1cc(-c2cc(F)cc(F)c2)n[nH]1 [Compound A-200] | 5 to 16 µM | 
< 5 µM | Cn1cc(C(=O)/N=C(/Nc2cc(-c3cc(F)cc(F)c3)n[nH]2)NC2CCCC2)c(C(F)(F)F)n1 [Compound A-27] | < 5 µM | 
< 5 µM | Cc1oncc1C(=O)/N=C(\Nc1cc(-c2cc(F)cc(Cl)c2)n[nH]1)NC1(C)CCCC1 [Compound A-98] | < 5 µM | 
> 16 µM | CCOCC(C)N/C(=N/C(=O)c1nc(C)oc1C)Nc1cc(-c2ccc(F)cc2)n[nH]1 (stereo not drawn) [Compound A-194] | < 5 µM | 
< 5 µM | Cn1cc(C(=O)N=C(Nc2cc(-c3ccc(O)c(F)c3)n[nH]2)Nc2ccccc2Cl)c(C(F)(F)F)n1 [Compound A-171] |  | < 5 µM
< 5 µM | Cn1cc(C(=O)/N=C(/Nc2cc(F)cc(Cl)c2)Nc2cc(-c3ccc(O)c(F)c3)n[nH]2)c(C(F)(F)F)n1 [Compound A-189] | < 5 µM | 
> 16 µM | CCOCCN/C(=N/C(=O)c1snnc1C)Nc1cc(-c2ccc(F)cc2)[nH]n1 [Compound A-121] | > 16 µM | 

IC50 (F1F0-ATPase) | SMILES | EC50 (Ramos cells) | EC50 (Ramos cells; Homo sapiens)
< 5 µM | CCC(C)N/C(=N/C(=O)c1cc(C)oc1C(F)(F)F)Nc1cc(-c2ccc(F)cc2)n[nH]1 (stereo not drawn) [Compound A-204] | < 5 µM | 
< 5 µM | Cn1cc(C(=O)/N=C(/Nc2cccc(Cl)c2)Nc2cc(-c3ccc(O)c(F)c3)n[nH]2)c(C(F)(F)F)n1 [Compound A-162] | < 5 µM | 
> 16 µM | CCOCCCN/C(=N/C(=O)c1cnoc1C)Nc1cc(-c2ccc(F)cc2)n[nH]1 [Compound A-105] | > 16 µM | 
5 to 16 µM | Cc1cc(C(=O)/N=C(\Nc2cc(-c3ccc(F)cc3)n[nH]2)NC(C)(C)C)on1 [Compound A-40] | > 16 µM | 
< 5 µM | Cn1cc(C(=O)/N=C(/Nc2cccc(F)c2)Nc2cc(-c3ccc(O)cc3F)[nH]n2)c(C(F)(F)F)n1 [Compound A-139] | < 5 µM | 
< 5 µM | CCC(C)N/C(=N/C(=O)c1cnoc1C)Nc1cc(-c2cc(F)cc(F)c2)n[nH]1 (stereo not drawn) [Compound A-88] | 5 to 16 µM | 
< 5 µM | Cn1cc(C(=O)/N=C(\Nc2cc(F)cc(Cl)c2)Nc2cc(-c3ccc(O)cc3F)n[nH]2)c(C(F)(F)F)n1 [Compound A-5] | < 5 µM | 
< 5 µM | CCOC(=O)NC1CCC(N/C(=N\C(=O)c2cc(C)oc2C(F)(F)F)NCc2ccc(F)cc2Cl)CC1 (stereo not drawn) [Compound A-126] |  | < 5 µM
5 to 16 µM | COC[C@H](C)N/C(=N\C(=O)c1cn(C)nc1C(F)(F)F)Nc1cc(-c2cc(F)cc(F)c2)n[nH]1 [Compound A-32] | 5 to 16 µM | 
> 16 µM | CCOCCCN/C(=N\C(=O)c1cnoc1C)Nc1cc(-c2cc(F)cc(F)c2)n[nH]1 [Compound A-1] | > 16 µM | 
< 5 µM | CC(C)N/C(=N/C(=O)c1cc(C(C)(C)C)nn1C)Nc1cc(-c2ccc(F)cc2)n[nH]1 [Compound A-49] | < 5 µM | 
< 5 µM | Cc1cc(C(=O)/N=C(/NCC(C)C)Nc2cc(-c3cc(F)cc(F)c3)n[nH]2)n(C)n1 [Compound A-83] | 5 to 16 µM | 
< 5 µM | Cc1ccc(-c2cc(N/C(=N\C(=O)c3cnoc3C)NC3CCC3)[nH]n2)cc1F [Compound A-94] | 5 to 16 µM | 
5 to 16 µM | CCC(C)N/C(=N/C(=O)c1cc(C)oc1C(F)(F)F)Nc1cc(C)n[nH]1 (stereo not drawn) [Compound A-111] | > 16 µM | 
< 5 µM | Cn1nc(C(C)(C)C)cc1C(=O)/N=C(\Nc1cc(-c2ccc(F)cc2)n[nH]1)NC1CCCC1 [Compound A-51] | < 5 µM | 
< 5 µM | Cn1cc(C(=O)/N=C(\Nc2cc(-c3cc(O)ccc3Cl)n[nH]2)NC(C)(C)C)c(C(F)(F)F)n1 [Compound A-181] | 5 to 16 µM | 
< 5 µM | Cn1cc(C(=O)/N=C(\Nc2cc(-c3ccc(O)c(F)c3)n[nH]2)Nc2ccc(F)cc2Cl)c(C(F)(F)F)n1 [Compound A-153] | < 5 µM | 
5 to 16 µM | Cn1cc(C(=O)/N=C(/NCC(C)(C)C)Nc2cc(-c3ccc(O)c(F)c3)[nH]n2)c(C(F)(F)F)n1 [Compound A-135] | < 5 µM | 
